According to US6531288B1, “Methods to identify compounds that affect the expression level of the syntaxin-1 A encoding gene” (University of British Columbia, priority 1999, dated 2003):
Starred links: 1 amine or outer side, 2 acyl side, 3 side chain; linkers in the order of their positions; H or OH if unused. Positions of bridges follow the written chain, without caps; N, C: chain ends. Non-standard residues stand in square brackets, D forms with d. Residues, ends and D or L forms follow the SMILES beside them. Chains are numbered I, II in the order given. Actinocin(9to1) = Cc1c2oc3c(C)ccc(C(=O)[*:1])c3nc-2c(C(=O)[*:2])c(N)c1=O; NMeV = CN[C@H](C(=O)O)C(C)C; Sar = CNCC(=O)O

Columns and labels:
syntaxin-1A [1] = assay: Syntaxin-1A expression (mRNA/protein) in HEK293 cells transfected with the α1A P/Q type calcium channel; assay type: cell-based, human; conditions: for calcium dependent induction of syntaxin-1A: α1A transfected cells
syntaxin-1A [2] = assay: Syntaxin-1A expression in untransfected HEK293 cells treated with agents that alter intracellular calcium; assay type: cell-based; conditions: for syntaxin-1A mRNA levels: untransfected cells / absence of α1A transfection
syntaxin-1A [3] = assay: Syntaxin-1A expression in cerebellar granule cells (endogenous P/Q type channels); assay type: cell-based
Procedure: The foregoing results in HEK293 transfected cells were correlated with the endogenous P/Q type channels in neurons. Syntaxin-1A is basally expressed in cerebellar granule cells, but this is inhibited by ω Agatoxin IVA, which is known to inhibit calcium P/Q type channels specifically. […] Treatment of these cerebellar granule cells, which had been incubated in ω Agatoxin IVA with thapsigargin recovered the syntaxin-1A expression.
Syntaxin-1A expression was inhibited by the same agents as had inhibited it in HEK293 cells including inhibitors of ryanodine —or IP3—induced calcium release from stores, of CaM kinase II/IV, and of PKA, or MAPKK.

CC(=O)OCOC(=O)CN(CC(=O)OCOC(C)=O)c1ccccc1OCCOc1ccccc1N(CC(=O)OCOC(C)=O)CC(=O)OCOC(C)=O [BAPTA-AM]
calcium dependent induction of syntaxin-1A (syntaxin-1A [1]): blocked

C[C@H](CCC(=O)O)C[C@H](C)C[C@H](C)C(=O)/C=C(\O)[C@H](C)C[C@H](C)C/C=C/[C@@H](C)[C@@H](O)[C@@H](C)[C@@H](O)C[C@@H]1CC[C@@](C)([C@H]2CC[C@@](C)([C@@H](C)O)O2)O1 [ionomycin]
levels giving maximal activation of syntaxin-1A production (syntaxin-1A [2]): 50 to 200 nM

CC(=O)OCOC(=O)CN(CCOCCOCCN(CC(=O)OCOC(C)=O)CC(=O)OCOC(C)=O)CC(=O)OCOC(C)=O [EGTA-AM]
calcium dependent induction of syntaxin-1A (syntaxin-1A [1]): blocked

ω Agatoxin IVA
syntaxin-1A expression (basal, calcium dependent) (syntaxin-1A [3]; cerebellar granule cells): inhibited

Cc1c2oc3c(C)ccc(C(=O)N[C@@H]4C(=O)N[C@H](C(C)C)C(=O)N5CCC[C@H]5C(=O)N(C)CC(=O)N(C)[C@@H](C(C)C)C(=O)O[C@@H]4C)c3nc-2c(C(=O)N[C@@H]2C(=O)N[C@H](C(C)C)C(=O)N3CCC[C@H]3C(=O)N(C)CC(=O)N(C)[C@@H](C(C)C)C(=O)O[C@@H]2C)c(N)c1=O [actinomycin D] (I: T[dV]P[Sar][NMeV] / II: T[dV]P[Sar][NMeV]; ester I:1-I:C, II:1-II:C; linker I:N-II:N via Actinocin(9to1))
mRNA corresponding to syntaxin-1A (syntaxin-1A [1]; HEK293 cells transfected with the α1A P/Q type calcium channel): inhibited

C/C=C(/C)C(=O)O[C@H]1C(C)=C2[C@H]([C@@H]1OC(=O)CCCCCCC)[C@@](C)(OC(C)=O)C[C@H](OC(=O)CCC)[C@@]1(O)[C@H]2OC(=O)[C@@]1(C)O [thapsigargin]
syntaxin-1A expression after P/Q block (syntaxin-1A [3]; cerebellar granule cells which had been incubated in ω Agatoxin IVA): recovered
syntaxin-1A expression (syntaxin-1A [2]; untransfected cells): stimulated

Cn1c(=O)c2c(ncn2C)n(C)c1=O [caffeine]
calcium release from ryanodine- and IP3-sensitive stores (syntaxin-1A [2]; untransfected cells): activated
syntaxin-1A mRNA levels (syntaxin-1A [2]): stimulated

C[N+](C)(C)CCOC(N)=O [carbachol]
calcium release from ryanodine- and IP3-sensitive stores (syntaxin-1A [2]; untransfected cells): activated
syntaxin-1A mRNA levels (syntaxin-1A [2]): stimulated
